For one experiment, the target named is T1, PI3K alpha (Homo sapiens, UniProt P42336).
T1 construct: His tag (C); made in house; host or cells: baculovirus; Tn5 (Trichoplusia ni) or TiniPro insect cells
Description: Enzymatic PI3K alpha isoform inhibition (lipid kinase activity, Kinase-Glo). It counts as biochemical. Particulars: enzymatic assay. The method, then: The kinase reaction is performed in a final volume of 50 μl per well of a half area COSTAR, 96 well plate. The final concentrations of ATP and phosphatidyl inositol in the assay are 5 μM and 6 μg/mL, respectively. The reaction is started by the addition of PI3 kinase, e.g. PI3 kinase δ.
(§1) In a more preferred assay, the kinase reaction is performed in a final volume of 10 μl per well of a low volume non-binding CORNING, 384 well black plate (Cat. No. #3676). The final concentrations of ATP and phosphatidyl inositol (PI) in the assay are 1 μM and 10 μg/mL, respectively. The reaction is started by the addition of ATP.
(§2) The components of the assay are added per well as follows:
(§3) 50 nl test compounds in 90% DMSO per well, in columns 1-20, 8 concentrations (1/3 and 1/3.33 serial dilution step) in single. • Low control: 50 nl of 90% DMSO in half the wells of columns 23-24 (0.45% in final). • High control: 50 nl of reference compound (e.g. compound of Example 7 in WO 2006/122806) in the other half of columns 23-24 (2.5 μM in final). • Standard: 50 nl of reference compound as just mentioned diluted as the test compounds in columns 21-22. • 20 mL ‘buffer’ are prepared per assay: • 200 μl of 1M TRIS HCl pH7.5 (10 mM in final) • 60 μl of 1M MgCl2 (3 mM in final) • 500 μl of 2M NaCl (50 mM in final) • 100 μl of 10% CHAPS (0.05% in final) • 200 μl of 100 mM DTT (1 mM in final) • 18.94 mL of nanopure water • 10 mL ‘PI’ are prepared per assay: • 200 μl of 1 mg/mL 1-alpha-Phosphatidylinositol (Liver Bovine, Avanti Polar Lipids Cat. No. 840042C MW=909.12) prepared in 3% OctylGlucoside (10 μg/mL in final) • 9.8 mL of ‘buffer’ • 10 mL ‘ATP’ are prepared per assay: • 6.7 μl of 3 mM stock of ATP giving a final concentration of 1 μM per well • 10 mL of ‘buffer’ • 2.5 mL of each PI3K construct are prepared per assay in ‘PI’ with the following final concentration: • 10 nM PI3K alfa EMV B1075 • 25 nM beta EMV BV949 • 10 nM delta EMV BV1060 • 150 nM gamma EMV BV950 • 5 μl of ‘PI/PI3K’ are added per well. • 5 μl ‘ATP’ are added per well to start the reaction. • The plates are then incubated at room temperature for 60 minutes (alfa, beta, delta) or 120 minutes (gamma). • The reaction is terminated by the addition of 10 μl Kinase-Glo (Promega Cat. No. #6714). • The assay plates are read after 10 minutes in Synergy 2 reader (BioTek, Vermont USA) with an integration time of 100 milliseconds and sensitivity set to 191. • Output: The High control is around 60'000 counts and the Low control is 30'000 or lower • This luminescence assay gives a useful Z′ ratio between 0.4 and 0.7
(§4) IC50 is determined by a four parameter curve fitting routine that comes along with “excel fit”. A four parameter logistic equation is used to calculate IC50 values (IDBS XLfit) of the percentage inhibition of each compound at 8 concentrations (usually 10, 3.0, 1.0, 0.3, 0.1, 0.030, 0.010 and 0.003 μM). Alternatively, IC50 values are calculated using idbsXLfit model 204, which is a 4 parameter logistic model.
(§5) Yet alternatively, for an ATP depletion assay, compounds of the formula I to be tested are dissolved in DMSO and directly distributed into a white 384-well plate at 0.5 μl per well. To start the reaction, 10 μl of 10 nM PI3 kinase and 5 μg/mL 1-alpha-phosphatidylinositol (PI) are added into each well followed by 10 μl of 2 μM ATP. The reaction is performed until approx 50% of the ATP is depleted, and then stopped by the addition of 20 μl of Kinase-Glo solution (Promega Corp., Madison, Wis., USA). The stopped reaction is incubated for 5 minutes and the remaining ATP is then detected via luminescence. IC50 values are then determined.

The target in another experiment is T2, PI3K delta (Homo sapiens, UniProt O00329).
T2 construct: for the full-length p110-d subunit are generated and fused by overlapping PCR; His tag (C); made in house; host or cells: baculovirus; Tn5 (Trichoplusia ni) or TiniPro insect cells
Description: Enzymatic PI3K delta isoform inhibition (lipid kinase activity, Kinase-Glo). It counts as biochemical. Particulars: enzymatic assay. The method, then:
as §1, §2, §3, §4, §5

T2 sequence (O00329 with tags, fused parts or gaps limits assumed): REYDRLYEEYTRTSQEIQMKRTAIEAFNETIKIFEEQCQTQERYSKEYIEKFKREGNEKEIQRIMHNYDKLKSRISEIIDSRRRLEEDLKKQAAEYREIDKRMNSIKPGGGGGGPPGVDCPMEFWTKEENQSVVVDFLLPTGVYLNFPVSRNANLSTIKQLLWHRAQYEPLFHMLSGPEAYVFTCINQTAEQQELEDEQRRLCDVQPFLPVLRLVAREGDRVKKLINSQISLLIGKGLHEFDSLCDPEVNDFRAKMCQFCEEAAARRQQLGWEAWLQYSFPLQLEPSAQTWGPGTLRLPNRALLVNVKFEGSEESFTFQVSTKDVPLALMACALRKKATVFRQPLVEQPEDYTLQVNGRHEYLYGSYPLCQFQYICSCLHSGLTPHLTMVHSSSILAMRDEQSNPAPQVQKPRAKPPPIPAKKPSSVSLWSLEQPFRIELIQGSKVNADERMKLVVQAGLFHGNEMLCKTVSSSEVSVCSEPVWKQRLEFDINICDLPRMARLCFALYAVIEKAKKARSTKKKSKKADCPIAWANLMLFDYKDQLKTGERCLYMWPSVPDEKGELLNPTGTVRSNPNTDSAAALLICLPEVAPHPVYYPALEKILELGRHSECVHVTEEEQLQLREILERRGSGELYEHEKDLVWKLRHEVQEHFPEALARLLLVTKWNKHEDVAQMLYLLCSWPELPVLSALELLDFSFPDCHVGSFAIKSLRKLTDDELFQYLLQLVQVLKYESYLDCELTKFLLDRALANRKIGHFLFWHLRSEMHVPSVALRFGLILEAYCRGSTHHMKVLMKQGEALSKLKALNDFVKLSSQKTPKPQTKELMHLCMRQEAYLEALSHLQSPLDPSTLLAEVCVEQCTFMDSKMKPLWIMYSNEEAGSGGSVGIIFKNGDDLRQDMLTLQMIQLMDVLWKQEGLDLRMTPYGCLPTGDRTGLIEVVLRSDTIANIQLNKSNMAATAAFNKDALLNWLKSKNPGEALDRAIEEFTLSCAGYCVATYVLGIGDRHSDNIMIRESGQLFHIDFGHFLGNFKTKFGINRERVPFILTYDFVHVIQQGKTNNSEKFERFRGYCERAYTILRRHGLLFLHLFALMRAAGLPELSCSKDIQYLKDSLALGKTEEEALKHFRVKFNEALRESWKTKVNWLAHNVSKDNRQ
T1 sequence (P42336 with tags, fused parts or gaps limits assumed): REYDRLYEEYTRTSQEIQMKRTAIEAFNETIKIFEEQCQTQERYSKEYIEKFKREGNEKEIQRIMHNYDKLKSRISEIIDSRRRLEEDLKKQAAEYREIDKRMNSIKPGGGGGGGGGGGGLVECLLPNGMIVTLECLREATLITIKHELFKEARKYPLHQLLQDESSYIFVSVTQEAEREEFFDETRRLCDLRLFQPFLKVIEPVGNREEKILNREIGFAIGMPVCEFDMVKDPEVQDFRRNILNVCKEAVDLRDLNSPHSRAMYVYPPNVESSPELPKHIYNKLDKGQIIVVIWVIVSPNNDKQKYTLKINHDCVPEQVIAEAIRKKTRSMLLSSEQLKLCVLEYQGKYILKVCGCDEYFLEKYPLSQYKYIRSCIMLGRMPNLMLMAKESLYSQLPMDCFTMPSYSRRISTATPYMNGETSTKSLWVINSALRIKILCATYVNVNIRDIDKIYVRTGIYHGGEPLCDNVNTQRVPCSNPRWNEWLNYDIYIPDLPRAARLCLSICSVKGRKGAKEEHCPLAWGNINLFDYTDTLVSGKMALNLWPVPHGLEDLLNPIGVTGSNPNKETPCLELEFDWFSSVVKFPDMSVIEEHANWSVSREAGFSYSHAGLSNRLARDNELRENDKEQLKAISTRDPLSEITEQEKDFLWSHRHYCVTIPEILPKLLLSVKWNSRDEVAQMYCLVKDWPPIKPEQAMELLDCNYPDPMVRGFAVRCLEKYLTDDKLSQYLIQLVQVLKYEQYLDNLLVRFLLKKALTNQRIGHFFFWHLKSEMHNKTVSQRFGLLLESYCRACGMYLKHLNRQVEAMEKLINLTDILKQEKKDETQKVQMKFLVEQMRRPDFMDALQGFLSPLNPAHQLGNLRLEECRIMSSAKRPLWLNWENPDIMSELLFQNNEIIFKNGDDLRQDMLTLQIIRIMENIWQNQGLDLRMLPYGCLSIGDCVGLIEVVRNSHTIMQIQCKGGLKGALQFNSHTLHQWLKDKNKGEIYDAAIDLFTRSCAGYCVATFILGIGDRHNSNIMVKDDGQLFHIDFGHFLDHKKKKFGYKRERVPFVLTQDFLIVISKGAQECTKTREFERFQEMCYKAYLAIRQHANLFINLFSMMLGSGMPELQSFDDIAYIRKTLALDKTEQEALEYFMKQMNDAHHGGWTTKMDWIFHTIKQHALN

Take `CC(=O)N1CC[C@@H](C(=O)N2CC[C@H](Oc3ccc4nccc(-c5cnc(OC(F)F)c(C)c5)c4c3C)C2)C1` [Example B7, 1-((R)-3-{(S)-3-[4-(6-Difluoromethoxy-5-methyl-pyridin-3-yl)-5-methyl-quinolin-6-yloxy]-pyrrolidine-1-carbonyl}-pyrrolidin-1-yl)-ethanone]: the values for the IC50 at PI3K alpha and at PI3K delta were 869 nM and 20 nM, respectively.
The like results for `COc1ncc(-c2ccnc3ccc(O[C@H]4CCN(C(=O)c5cn(C)cn5)C4)cc23)cc1C(F)(F)F` [Example A26, {(S)-3-[4-(6-Methoxy-5-trifluoromethyl-pyridin-3-yl)-quinolin-6-yloxy]-pyrrolidin-1-yl}-(1-methyl-1H-imidazol-4-yl)-methanone] were, in that order, 121 nM and 13 nM.
The like results for `Cc1cc(-c2ccnc3ccc(O[C@H]4CCN(C(=O)C5CCS(=O)(=O)CC5)C4)cc23)cnc1OC(F)F` [Example A38, {(S)-3-[4-(6-Difluoromethoxy-5-methyl-pyridin-3-yl)-quinolin-6-yloxy]-pyrrolidin-1-yl}-(1,1-dioxo-hexahydro-1lambda*6*-thiopyran-4-yl)-methanone] were, in that order, 1650 nM and 48 nM.
The like results for `Cc1cc(-c2ccnc3ccc(O[C@H]4CCN(C(=O)C(C)C)C4)cc23)cnc1S(C)(=O)=O` [Example A36, 1-{(S)-3-[4-(6-Methanesulfonyl-5-methyl-pyridin-3-yl)-quinolin-6-yloxy]-pyrrolidin-1-yl}-2-methyl-propan-1-one] were, in that order, 1570 nM and 39 nM.
In the case of `CNc1cc(-c2ccnc3ccc(O[C@H]4CCN(C(=O)C5CCOCC5)C4)cc23)cnc1S(C)(=O)=O` [Example A40, {(S)-3-[4-(6-Methanesulfonyl-5-methylamino-pyridin-3-yl)-quinolin-6-yloxy]-pyrrolidin-1-yl}-(tetrahydro-pyran-4-yl)-methanone], the figures for the half-inhibitory concentration (IC50) at PI3K alpha and at PI3K delta were 2420 nM and 118 nM, respectively.
Taken in the same sequence, the figures for `Cc1cc(-c2ccnc3ccc(O[C@H]4CCN(C(=O)C5CCS(=O)(=O)CC5)C4)cc23)cnc1S(C)(=O)=O` [Example A23, (1,1-Dioxo-hexahydro-1lambda*6*-thiopyran-4-yl)-{(S)-3-[4-(6-methanesulfonyl-5-methyl-pyridin-3-yl)-quinolin-6-yloxy]-pyrrolidin-1-yl}-methanone] were 1140 nM and 10 nM.
Taken in the same sequence, the figures for `COc1ncc(-c2ccnc3ccc(O[C@H]4CCN(C(=O)C5CCOCC5)C4)cc23)cc1C(F)(F)F` [Example A7, {(S)-3-[4-(6-Methoxy-5-trifluoromethyl-pyridin-3-yl)-quinolin-6-yloxy]-pyrrolidin-1-yl}-(tetrahydro-pyran-4-yl)-methanone] were 96 nM and 4 nM.
Taken in the same sequence, the figures for `Cc1cc(-c2ccnc3ccc(O[C@H]4CCN(C(=O)C5CCOCC5)C4)c(C)c23)cnc1S(C)(=O)=O` [Example B5, {(S)-3-[4-(6-Methanesulfonyl-5-methyl-pyridin-3-yl)-5-methyl-quinolin-6-yloxy]-pyrrolidin-1-yl}-(tetrahydro-pyran-4-yl)-methanone] were 664 nM and 11 nM.
Consider `COc1ncc(-c2ccnc3ccc(O[C@H]4CCN(C(=O)C5CCS(=O)(=O)CC5)C4)c(C)c23)cc1CF` [Example B6, (1,1-Dioxo-hexahydro-1lambda*6*-thiopyran-4-yl)-{(S)-3-[4-(5-fluoromethyl-6-methoxy-pyridin-3-yl)-5-methyl-quinolin-6-yloxy]-pyrrolidin-1-yl}-methanone], for which the values for the IC50 on PI3K alpha and on PI3K delta were 294 nM and 12 nM, respectively.
The like results for `CC(=O)N1CC[C@@H](C(=O)N2CC[C@H](Oc3ccc4nccc(-c5cnc(OC(F)F)c(C)c5)c4c3)C2)C1` [Example A35, 1-((R)-3-{(S)-3-[4-(6-Difluoromethoxy-5-methyl-pyridin-3-yl)-quinolin-6-yloxy]-pyrrolidine-1-carbonyl}-pyrrolidin-1-yl)-ethanone] were, in that order, 1230 nM and 29 nM.
The like results for `Nc1ncc(-c2ccnc3ccc(O[C@H]4CCN(C(=O)C5CCOCC5)C4)cc23)cc1C(F)(F)F` [Example A29, {(S)-3-[4-(6-Amino-5-trifluoromethyl-pyridin-3-yl)-quinolin-6-yloxy]-pyrrolidin-1-yl}-(tetrahydro-pyran-4-yl)-methanone] were, in that order, 30 nM and 17 nM.
The like results for `COc1ncc(-c2ccnc3ccc(O[C@H]4CCN(C(=O)c5cn(C)cn5)C4)cc23)cc1C` [Example A39, {(S)-3-[4-(6-Methoxy-5-methyl-pyridin-3-yl)-quinolin-6-yloxy]-pyrrolidin-1-yl}-(1-methyl-1H-imidazol-4-yl)-methanone] were, in that order, 189 nM and 71 nM.
As for `COc1ncc(-c2ccnc3ccc(O[C@H]4CCN(C(=O)C5CCN(C(C)=O)CC5)C4)cc23)cc1C` [Example A27, 1-(4-{(S)-3-[4-(6-Methoxy-5-methyl-pyridin-3-yl)-quinolin-6-yloxy]-pyrrolidine-1-carbonyl}-piperidin-1-yl)-ethanone], the IC50 came to 543 nM at PI3K alpha and 14 nM on PI3K delta.
The like results for `Nc1ncc(-c2ccnc3ccc(O[C@H]4CCN(C(=O)C5CCS(=O)(=O)CC5)C4)cc23)cc1C(F)(F)F` [Example A31, {(S)-3-[4-(6-Amino-5-trifluoromethyl-pyridin-3-yl)-quinolin-6-yloxy]-pyrrolidin-1-yl}-(1,1-dioxo-hexahydro-1lambda*6*-thiopyran-4-yl)-methanone] were, in that order, 30 nM and 20 nM.
The like results for `COc1ncc(-c2ccnc3ccc(O[C@H]4CCN(C(=O)c5ccc(=O)[nH]c5)C4)cc23)cc1C(F)(F)F` [Example A19, 5-{(S)-3-[4-(6-Methoxy-5-trifluoromethyl-pyridin-3-yl)-quinolin-6-yloxy]-pyrrolidine-1-carbonyl}-1H-pyridin-2-one] were, in that order, 85 nM and 7 nM.
Taken in the same sequence, the figures for `CS(=O)(=O)c1ncc(-c2ccnc3ccc(O[C@H]4CCN(C(=O)C5CCOCC5)C4)cc23)cc1CF` [Example A20, {(S)-3-[4-(5-Fluoromethyl-6-methanesulfonyl-pyridin-3-yl)-quinolin-6-yloxy]-pyrrolidin-1-yl}-(tetrahydropyran-4-yl)-methanone] were 543 nM and 7 nM.
Consider `COc1ncc(-c2ccnc3ccc(O[C@H]4CCN(C(=O)C5CCOC5)C4)cc23)cc1C#N` (stereo partly drawn) [Example A12, 2-Methoxy-5-{6-[(S)-1-((R,S)-tetrahydro-furan-3-carbonyl)-pyrrolidin-3-yloxy]-quinolin-4-yl}-nicotinonitrile], for which the IC50 stood at 305 nM at PI3K alpha and 5 nM on PI3K delta.
